Results published in patent US11547712B2, “Kinase inhibitor compounds and compositions and methods of use” (ICAHN SCHOOL OF MEDICINE AT MOUNT SINAI, priority 2017, dated 2023).
Read-outs that look alike come from different tables or passages of the source.

Assays:
DYRK1A [1] = target: T1, DYRK1A (Homo sapiens (Human), UniProt Q13627); assay: FRET-based LanthaScreen Eu Kinase Binding Assay (Life Technologies); conditions: read-out: Screening (30 μM) LifeTech: % DYRK1A inhibition at 30 μM
Protocol: (§1) DYRK1A Binding Assays. Compounds were tested for DYRK1A binding activity at two different commercial kinase profiling services, Life Technologies and DiscoverX. […] Compounds were screened for DYRK1A activity at a single concentration of 30 μM in duplicates.

DYRK1A [2] = target: T1, DYRK1A; assay: KINOMEscan Assay (DiscoverX), DYRK1A binding; conditions: for remaining binding at 30 µM: read-out: Screening (30 μM) DiscoverX: primary screen binding interactions, % DMSO Ctrl; for Kd: eleven serial three fold dilutions (in duplicate)
Protocol: as §1

| inhibition at 30 µM (DYRK1A [1]; 30 μM single concentration) [%] | Molecule | remaining binding at 30 µM (DYRK1A [2]) [%] | inhibition at 30 µM (DYRK1A [1]) [%] | Kd (DYRK1A [2]) [nM] |
| --- | --- | --- | --- | --- |
| 63 | CNC1=NN=C(c2ccc3[nH]c(=O)[nH]c3c2)CS1 [Compound 3-2, N-methyl-5-(benzo[d]imidazol-2(3H)-one)-6H-1,3,4-thiadiazin-2-amine] | 0.5 | – | – |
| 69 | CCNC1=NN=C(c2ccc3[nH]c(=O)[nH]c3c2)CS1 [Compound 3-3, N-ethyl-5-(benzo[d]imidazol-2(3H)-one)-6H-1,3,4-thiadiazin-2-amine] | 0 | – | – |
| 48 | CCCNC1=NN=C(c2ccc3[nH]c(=O)[nH]c3c2)CS1 [Compound 3-4, N-propyl-5-(benzo[d]imidazol-2(3H)-one)-6H-1,3,4-thiadiazin-2-amine] | 2.9 | – | – |
| 24 | CCCCNC1=NN=C(c2ccc3[nH]c(=O)[nH]c3c2)CS1 [Compound 3-5, N-butyl-5-(benzo[d]imidazol-2(3H)-one)-6H-1,3,4-thiadiazin-2-amine] | 0 | – | – |
| 59 | CC(C)NC1=NN=C(c2ccc3[nH]c(=O)[nH]c3c2)CS1 [Compound 3-6, N-isopropyl-5-(benzo[d]imidazol-2(3H)-one)-6H-1,3,4-thiadiazin-2-amine] | 2.3 | – | – |
| 46 | CC(C)(C)NC1=NN=C(c2ccc3[nH]c(=O)[nH]c3c2)CS1 [Compound 3-7, N-t-butyl-5-(benzo[d]imidazol-2(3H)-one)-6H-1,3,4-thiadiazin-2-amine] | 0.75 | – | – |
| – | O=c1[nH]c2ccc(C3=NN=C(NCc4ccc(Cl)cc4)SC3)cc2[nH]1 [Compound 3-12, N-(4-chlorobenzyl)-5-(benzo[d]imidazol-2(3H)-one)-6H-1,3,4-thiadiazin-2-amine] | 19 | 93 | 185 |
| – | O=c1[nH]c2ccc(C3=NN=C(NCc4cccc(Cl)c4)SC3)cc2[nH]1 [Compound 3-13, N-(3-chlorobenzyl)-5-(benzo[d]imidazol-2(3H)-one)-6H-1,3,4-thiadiazin-2-amine] | – | – | 420 |
| – | O=c1[nH]c2ccc(C3=NN=C(NCc4ccccc4Cl)SC3)cc2[nH]1 [Compound 3-14, N-(2-chlorobenzyl)-5-(benzo[d]imidazol-2(3H)-one)-6H-1,3,4-thiadiazin-2-amine] | – | – | 840 |
| – | O=c1[nH]c2ccc(C3=NN=C(NCc4ccc(F)cc4)SC3)cc2[nH]1 [Compound 3-15, N-(4-fluorobenzyl)-5-(benzo[d]imidazol-2(3H)-one)-6H-1,3,4-thiadiazin-2-amine] | 8.9 | 95 | – |
| – | O=c1[nH]c2ccc(C3=NN=C(NCc4cccc(F)c4)SC3)cc2[nH]1 [Compound 3-16, N-(3-fluorobenzyl)-5-(benzo[d]imidazol-2(3H)-one)-6H-1,3,4-thiadiazin-2-amine] | – | – | 900 |
| – | O=c1[nH]c2ccc(C3=NN=C(NCc4ccc(C(F)(F)F)cc4)SC3)cc2[nH]1 [Compound 3-18, N-(4-trifluoromethylbenzyl)-5-(benzo[d]imidazol-2(3H)-one)-6H-1,3,4-thiadiazin-2-amine] | 40 | 53 | – |
| – | O=c1[nH]c2ccc(C3=NN=C(NCc4cccc(C(F)(F)F)c4)SC3)cc2[nH]1 [Compound 3-19, N-(3-trifluoromethylbenzyl)-5-(benzo[d]imidazol-2(3H)-one)-6H-1,3,4-thiadiazin-2-amine] | 23 | 20 | – |
| – | O=c1[nH]c2ccc(C3=NN=C(NCc4ccccc4C(F)(F)F)SC3)cc2[nH]1 [Compound 3-20, N-(2-trifluoromethylbenzyl)-5-(benzo[d]imidazol-2(3H)-one)-6H-1,3,4-thiadiazin-2-amine] | 38 | 24 | 7700 |
| – | N#Cc1ccc(CNC2=NN=C(c3ccc4[nH]c(=O)[nH]c4c3)CS2)cc1 [Compound 3-21, N-(4-cyanobenzyl)-5-(benzo[d]imidazol-2(3H)-one)-6H-1,3,4-thiadiazin-2-amine] | 12 | 47 | – |
| – | N#Cc1cccc(CNC2=NN=C(c3ccc4[nH]c(=O)[nH]c4c3)CS2)c1 [Compound 3-22, N-(3-cyanobenzyl)-5-(benzo[d]imidazol-2(3H)-one)-6H-1,3,4-thiadiazin-2-amine] | 12 | 69 | – |
| – | O=c1[nH]c2ccc(C3=NN=C(NCc4cccnc4)SC3)cc2[nH]1 [Compound 3-23, N-(pyridine-3yl)methyl-5-(benzo[d]imidazol-2(3H)-one)-6H-1,3,4-thiadiazin-2-amine] | 4.2 | 74 | 860 |
| – | O=c1[nH]c2ccc(C3=NN=C(NCc4ccncc4)SC3)cc2[nH]1 [Compound 3-24, N-(pyridine-4yl)methyl-5-(benzo[d]imidazol-2(3H)-one)-6H-1,3,4-thiadiazin-2-amine] | – | – | 2200 |
| – | CC(NC1=NN=C(c2ccc3[nH]c(=O)[nH]c3c2)CS1)c1ccccc1 (centres unmarked) [Compound 3-25, N-(1-phenylethyl)-5-(benzo[d]imidazol-2(3H)-one)-6H-1,3,4-thiadiazin-2-amine] | 3.7 | 57 | – |
| – | CC(NC1=NN=C(c2ccc3[nH]c(=O)[nH]c3c2)CS1)c1ccc(F)cc1 (centres unmarked) [Compound 3-26, N-(1-(4-fluorophenyl)ethyl)-5-(benzo[d]imidazol-2(3H)-one)-6H-1,3,4-thiadiazin-2-amine] | – | – | 2300 |
| – | O=c1[nH]c2ccc(C3=NN=C(Nc4ccccc4)SC3)cc2[nH]1 [Compound 3-28, N-phenyl-5-(benzo[d]imidazol-2(3H)-one)-6H-1,3,4-thiadiazin-2-amine] | 41 | 39 | 19000 |
| – | O=c1[nH]c2ccc(C3=NN=C(Nc4cccc(F)c4)SC3)cc2[nH]1 [Compound 3-29, N-(3-fluorophenyl)-5-(benzo[d]imidazol-2(3H)-one)-6H-1,3,4-thiadiazin-2-amine] | – | – | 7000 |
| – | O=c1[nH]c2ccc(C3=NN=C(Nc4cccc(C(F)(F)F)c4)SC3)cc2[nH]1 [Compound 3-30, N-(3-trifluoromethylphenyl)-5-(benzo[d]imidazol-2(3H)-one)-6H-1,3,4-thiadiazin-2-amine] | – | – | 14000 |
| – | N#Cc1cccc(NC2=NN=C(c3ccc4[nH]c(=O)[nH]c4c3)CS2)c1 [Compound 3-31, N-(3-cyanophenyl)-5-(benzo[d]imidazol-2(3H)-one)-6H-1,3,4-thiadiazin-2-amine] | – | – | 3800 |
| – | O=c1[nH]c2ccc(C3=NN=C(NCCc4ccccc4)SC3)cc2[nH]1 [Compound 3-34, N-(2-phenylethyl)-5-(benzo[d]imidazol-2(3H)-one)-6H-1,3,4-thiadiazin-2-amine] | 0.5 | 61 | 1600 |
| – | O=c1[nH]c2ccc(C3=NN=C(NCCc4ccccn4)SC3)cc2[nH]1 [Compound 3-38, N-(2-(pyridine-1-yl)ethyl)-5-(benzo[d]imidazol-2(3H)-one)-6H-1,3,4-thiadiazin-2-amine] | 8.4 | 87 | 1600 |
| – | O=c1[nH]c2ccc(C3=NN=C(NCCc4cccnc4)SC3)cc2[nH]1 [Compound 3-39, N-(2-(pyridine-3-yl)ethyl)-5-(benzo[d]imidazol-2(3H)-one)-6H-1,3,4-thiadiazin-2-amine] | – | – | 2200 |
| – | O=c1[nH]c2ccc(C3=NN=C(NCc4cccc5ccccc45)SC3)cc2[nH]1 [Compound 3-41, N-(1-naphthylmethyl)-5-(benzo[d]imidazol-2(3H)-one)-6H-1,3,4-thiadiazin-2-amine] | 36 | 11 | 7300 |
| – | NC(=O)c1cccc(CNC2=NN=C(c3ccc4[nH]c(=O)[nH]c4c3)CS2)c1 [Compound 4-2, N-(3-carboxyaminobenzyl)-5-(benzo[d]imidazol-2(3H)-one)-6H-1,3,4-thiadiazin-2-amine] | – | – | 440 |
| – | N-(3-phenylpropyl)-5-(benzo[d]imidazol-2(3H)-one)-6H-1,3,4-thiadiazin-2-amine [Compound 3-37] | – | – | 950 |
